Measurements taken from patent US9452980B2, “Substituted benzamides” (Hoffmann-La Roche Inc., priority 2009, dated 2016).
Counter-ions that a name gives are not always drawn. Like-named read-outs stand apart in the source and are kept apart here.

Tests used:
rat TAAR1 = rat TAAR1 (Rattus norvegicus (Rat), UniProt Q923Y9); assay: Radioligand binding assay on rat TAAR1; settings: read-out: Ki (μM) rat
How it was run: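 Membranes from HEK293 cells stably expressing rat TAAR1, with Kd checked per batch by saturation. Competition with ³H-(S)-4-[(ethyl-phenyl-amino)-methyl]-4,5-dihydro-oxazol-2-ylamine, compounds 10 pM–10 μM in duplicate, 1 hr at 4 °C. Filtration then scintillation counting; nonspecific binding defined with 10 μM unlabeled ligand.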

mouse TAAR1 = mouse TAAR1 (Mus musculus (Mouse), UniProt Q923Y8); assay: Radioligand binding assay on mouse TAAR1; settings: read-out: Ki (μM) mouse
How it was run: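 Displacement of the tritiated oxazol-2-ylamine radioligand was measured by filtration and scintillation counting after 1 h incubation at 4 °C. Test concentrations ran 10 pM–10 μM in duplicate, with 10 μM cold ligand giving nonspecific binding. The receptor source was membranes of a stable mouse TAAR1 HEK293 line.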

[1] = rat TAAR1, HEK-293 membranes, second value of cell mouse/rat
[2] = mouse TAAR1, HEK-293 membranes, first value of cell mouse/rat

Chain of mouse TAAR1 (Q923Y8 whole entry): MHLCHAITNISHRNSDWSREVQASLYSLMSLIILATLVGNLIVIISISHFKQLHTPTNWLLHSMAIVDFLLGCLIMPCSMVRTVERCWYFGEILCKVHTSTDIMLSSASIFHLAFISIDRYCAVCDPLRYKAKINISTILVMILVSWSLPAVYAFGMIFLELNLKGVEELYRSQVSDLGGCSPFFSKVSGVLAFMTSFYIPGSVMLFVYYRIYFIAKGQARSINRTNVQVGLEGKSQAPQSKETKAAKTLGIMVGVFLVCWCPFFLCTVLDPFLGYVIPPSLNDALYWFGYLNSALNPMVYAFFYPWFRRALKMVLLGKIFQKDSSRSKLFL
Chain of rat TAAR1 (Q923Y9 whole entry): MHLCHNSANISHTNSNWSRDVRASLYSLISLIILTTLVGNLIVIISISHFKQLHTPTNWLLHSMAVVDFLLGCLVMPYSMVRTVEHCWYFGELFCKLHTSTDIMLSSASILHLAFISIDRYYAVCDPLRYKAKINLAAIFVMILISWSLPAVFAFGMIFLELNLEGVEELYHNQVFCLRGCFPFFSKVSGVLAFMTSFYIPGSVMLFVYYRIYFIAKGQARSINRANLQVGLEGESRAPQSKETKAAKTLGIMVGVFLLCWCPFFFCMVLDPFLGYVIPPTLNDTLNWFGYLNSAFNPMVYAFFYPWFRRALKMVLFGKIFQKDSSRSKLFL

Row | Structure (SMILES) | Ki (rat TAAR1; [1]) [µM] | Ki (mouse TAAR1; [2]) [µM] | Ki (rat TAAR1) [µM] | Ki (mouse TAAR1) [µM]
1 | O=C(NCc1ccc([C@@H]2CNCCO2)cc1)c1ccc(OCC(F)(F)F)nc1 [Example 316, (R)—N-(4-(Morpholin-2-yl)benzyl)-6-(2,2,2-trifluoroethoxy)nicotinamide hydrochloride] | 0.0121 | 0.273 |  | 
2 | CC(C(=O)Nc1ccc(C2CCNC2)cc1)c1cccc(C(F)(F)F)c1 (racemic) [Example 61, (RS)—N—((RS)-4-Pyrrolidin-3-yl-phenyl)-2-(3-trifluoromethyl-phenyl)-propionamide] | 0.0033 | 0.0172 |  | 
3 | COC(=O)c1ccc(Oc2ccc(C(=O)Nc3ccc(C4CNCCO4)cc3)cc2)cc1Cl (racemic) [Example 213, (RS)-Methyl 2-chloro-4-(4-(4-(morpholin-2-yl)phenylcarbamoyl)phenoxy)benzoate hydrochloride] | 0.001 | 0.0012 |  | 
4 | O=C(Nc1ccc(C2CCCNC2)cc1)c1ccc(C(F)(F)F)cn1 (racemic) [Example 138, (RS)-5-Trifluoromethyl-pyridine-2-carboxylic acid (4-piperidin-3-yl-phenyl)-amide hydrochloride] | 0.0059 | 0.035 |  | 
5 | Cc1nc(C(=O)Nc2ccc(C3CNCCO3)cc2)cs1 (racemic) [Example 217, (RS)-2-Methyl-N-(4-(morpholin-2-yl)phenyl)thiazole-4-carboxamide hydrochloride] | 0.0941 | 0.335 |  | 
6 | O=C(Nc1ccc([C@H]2CCCNC2)cc1)c1ccc(C(F)(F)F)nc1 [Example 265, (R)—N-(4-(Piperidin-3-yl)phenyl)-6-(trifluoromethyl)nicotinamide hydrochloride] |  |  | 0.0059 | 0.0209
7 | COc1cc(C(=O)Nc2ccc(C3CCNC3)cc2)nc2ccccc12 (racemic) [Example 90, (RS)-4-Methoxy-quinoline-2-carboxylic acid (4-pyrrolidin-3-yl-phenyl)-amide hydrochloride] | 0.0101 | 0.0192 |  | 
8 | O=C(Nc1ccc(C2CCCNC2)cc1)c1ccc(OCC(F)(F)F)nc1 (racemic) [Example 178, (RS)—N-(4-(Piperidin-3-yl)phenyl)-6-(2,2,2-trifluoroethoxy)nicotinamide hydrochloride] | 0.002 | 0.0032 |  | 
9 | O=C(Nc1ccc(C2CNCCO2)cc1)c1csc(-c2ccccc2)n1 (racemic) [Example 233, (RS)—N-(4-(Morpholin-2-yl)phenyl)-2-phenylthiazole-4-carboxamide hydrochloride] | 0.0014 | 0.0008 |  | 
10 | CCSc1ccc(C(=O)Nc2ccc([C@@H]3CCCNC3)cc2)cc1 [Example 237, (S)-4-(Ethylthio)-N-(4-(piperidin-3-yl)phenyl)benzamide hydrochloride] | 0.0008 | 0.0677 |  | 
11 | O=C(Nc1ccc([C@@H]2CCCNC2)cc1)OC1Cc2ccccc2C1 [Example 258, (S)-2,3-Dihydro-1H-inden-2-yl 4-(piperidin-3-yl)phenylcarbamate 2,2,2-trifluoroacetate] | 0.0062 |  |  | 0.0225
12 | O=C(Nc1ccc(C2CCCNC2)cc1)c1ccc(Cl)cn1 (racemic) [Example 78, (RS)-5-Chloro-pyridine-2-carboxylic acid (4-piperidin-3-yl-phenyl)-amide hydrochloride] | 0.0466 | 0.0067 |  | 
13 | O=C(NCc1ccc([C@@H]2CNCCO2)cc1)c1ccc(Cl)nc1 [Example 315, (R)-6-Chloro-N-(4-(morpholin-2-yl)benzyl)nicotinamide hydrochloride] | 0.009 | 1.35 |  | 
14 | Cc1nc(-c2cnccn2)sc1C(=O)Nc1ccc(C2CNCCO2)cc1 (racemic) [Example 298, (RS)-4-Methyl-N-(4-(morpholin-2-yl)phenyl)-2-(pyrazin-2-yl)thiazole-5-carboxamide hydrochloride] | 0.0143 |  |  | 0.0506
15 | O=C(Nc1ccc(C2CNCCO2)cc1)c1ccnc(Cl)c1 (racemic) [Example 218, (RS)-2-Chloro-N-(4-(morpholin-2-yl)phenyl)isonicotinamide hydrochloride] | 0.0087 | 0.0872 |  | 
